Laboratory results reported in article PMC7488503 (Acta Pharmaceutica Sinica. B, 2020).

Assays:
[1] = test system: HBVPs; test: PDGF-BB-induced HBVPs proliferation; assay type: cell-based; conditions: Homo sapiens, 48 h, read-out: IC50 HBVPs
[2] = Pharmacokinetic study in rats; assay type: in vivo; conditions: both, Sprague-Dawley, rat, plasma
[3] = target: CDK2 (Homo sapiens, UniProt P24941); test: Z′-LYTE kinase inhibition assay
[4] = target: GSK3β (Homo sapiens, UniProt P49841); test: Z′-LYTE kinase inhibition assay
[5] = target: MAP4K4 (Homo sapiens, UniProt O95819); test: Z′-LYTE kinase inhibition assay
[6] = target: FGFR2 (Homo sapiens, UniProt P21802); test: Z′-LYTE kinase inhibition assay
[7] = test system: phosphorylation of FGFR1‒4 and ERK; test: Western blot, FGF/FGFRs/ERK signalling in HUVECs; assay type: cell-based, human; conditions: 5.0 μmol/L; induced by 50 ng/mL bFGF in HUVECs; P < 0.01

FGFR2, sequence (P21802 22-821): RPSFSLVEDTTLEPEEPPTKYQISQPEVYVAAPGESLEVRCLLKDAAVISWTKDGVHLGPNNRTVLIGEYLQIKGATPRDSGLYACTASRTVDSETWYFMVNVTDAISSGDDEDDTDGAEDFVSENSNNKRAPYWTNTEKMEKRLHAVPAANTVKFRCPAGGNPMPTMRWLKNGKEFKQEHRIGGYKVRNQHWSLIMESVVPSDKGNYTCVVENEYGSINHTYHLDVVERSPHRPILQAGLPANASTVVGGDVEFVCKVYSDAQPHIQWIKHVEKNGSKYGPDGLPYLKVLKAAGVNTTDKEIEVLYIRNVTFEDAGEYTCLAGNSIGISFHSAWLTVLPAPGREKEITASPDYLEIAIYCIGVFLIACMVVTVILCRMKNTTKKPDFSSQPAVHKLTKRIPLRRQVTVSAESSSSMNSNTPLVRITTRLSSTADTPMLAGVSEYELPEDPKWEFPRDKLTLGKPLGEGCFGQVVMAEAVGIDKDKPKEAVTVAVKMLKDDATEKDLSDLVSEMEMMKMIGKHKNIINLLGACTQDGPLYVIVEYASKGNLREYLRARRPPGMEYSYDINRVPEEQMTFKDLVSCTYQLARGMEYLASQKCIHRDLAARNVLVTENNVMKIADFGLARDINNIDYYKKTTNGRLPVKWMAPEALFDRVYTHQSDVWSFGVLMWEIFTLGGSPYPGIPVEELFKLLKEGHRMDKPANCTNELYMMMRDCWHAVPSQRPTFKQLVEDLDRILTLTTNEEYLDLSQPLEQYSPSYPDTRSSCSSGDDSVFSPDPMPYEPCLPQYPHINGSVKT
GSK3β, sequence (P49841 whole entry): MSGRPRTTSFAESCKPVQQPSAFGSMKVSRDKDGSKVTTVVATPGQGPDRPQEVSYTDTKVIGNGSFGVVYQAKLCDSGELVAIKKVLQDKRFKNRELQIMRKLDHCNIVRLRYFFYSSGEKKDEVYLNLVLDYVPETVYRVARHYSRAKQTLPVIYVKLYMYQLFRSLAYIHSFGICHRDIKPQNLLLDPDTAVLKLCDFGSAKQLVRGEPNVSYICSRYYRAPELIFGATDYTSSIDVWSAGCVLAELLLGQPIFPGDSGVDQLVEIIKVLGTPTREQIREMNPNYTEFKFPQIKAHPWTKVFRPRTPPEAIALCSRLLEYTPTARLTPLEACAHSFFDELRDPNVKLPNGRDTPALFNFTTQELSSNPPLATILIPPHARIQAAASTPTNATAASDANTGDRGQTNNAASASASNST
MAP4K4, sequence (O95819 whole entry): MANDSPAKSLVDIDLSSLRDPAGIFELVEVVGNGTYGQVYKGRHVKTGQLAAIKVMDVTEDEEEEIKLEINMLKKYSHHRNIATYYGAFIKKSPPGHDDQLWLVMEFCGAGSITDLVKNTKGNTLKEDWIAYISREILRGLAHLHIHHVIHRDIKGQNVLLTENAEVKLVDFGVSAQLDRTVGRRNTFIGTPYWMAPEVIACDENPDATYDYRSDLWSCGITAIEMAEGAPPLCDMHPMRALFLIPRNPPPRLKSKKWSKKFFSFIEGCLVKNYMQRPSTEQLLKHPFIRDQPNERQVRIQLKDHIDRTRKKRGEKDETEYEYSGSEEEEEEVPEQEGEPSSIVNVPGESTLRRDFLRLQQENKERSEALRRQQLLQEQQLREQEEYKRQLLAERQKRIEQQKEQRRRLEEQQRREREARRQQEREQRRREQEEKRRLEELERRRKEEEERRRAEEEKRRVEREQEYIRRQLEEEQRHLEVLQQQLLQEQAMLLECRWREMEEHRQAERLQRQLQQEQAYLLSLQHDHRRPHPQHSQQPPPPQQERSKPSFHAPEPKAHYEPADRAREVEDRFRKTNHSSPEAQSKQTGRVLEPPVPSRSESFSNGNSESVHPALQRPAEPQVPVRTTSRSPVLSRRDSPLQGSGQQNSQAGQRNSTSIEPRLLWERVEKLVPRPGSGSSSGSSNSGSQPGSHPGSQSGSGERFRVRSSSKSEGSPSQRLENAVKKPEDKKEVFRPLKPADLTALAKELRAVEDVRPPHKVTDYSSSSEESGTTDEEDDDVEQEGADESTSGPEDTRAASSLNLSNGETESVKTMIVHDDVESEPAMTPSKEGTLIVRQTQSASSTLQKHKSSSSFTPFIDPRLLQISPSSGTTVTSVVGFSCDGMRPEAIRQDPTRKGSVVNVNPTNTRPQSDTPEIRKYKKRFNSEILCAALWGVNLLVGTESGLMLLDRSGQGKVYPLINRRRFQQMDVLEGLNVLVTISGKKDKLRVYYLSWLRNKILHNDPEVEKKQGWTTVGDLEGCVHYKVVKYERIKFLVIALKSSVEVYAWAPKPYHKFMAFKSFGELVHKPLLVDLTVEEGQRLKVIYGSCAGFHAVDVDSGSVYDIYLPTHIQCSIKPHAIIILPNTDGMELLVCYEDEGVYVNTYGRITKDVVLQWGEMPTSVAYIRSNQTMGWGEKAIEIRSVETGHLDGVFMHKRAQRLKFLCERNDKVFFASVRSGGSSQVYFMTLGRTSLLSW

With `COc1cc2nccc(Oc3ccc(NC(=S)NC4CC4)c(Cl)c3F)c2cc1C(N)=O` [WXFL-152, 4-(3-Chloro-4-(3-cyclopropylthioureido)-2-fluorophenoxy)-7-methoxyquinoline-6-carboxamide] as the compound, how does the IC50 [1] read?
Its IC50 is 1940 nM.

And the AUC(0-inf) ([2]; iv, 3 mg/kg)?
Its AUC(0-inf) is 35.2 ± 8.3 µM·h.

And the AUC(0-t) ([2]; iv, 3 mg/kg)?
The AUC(0-t) was 35 ± 8.2 µM·h.

What about the Cmax ([2]; iv, 3 mg/kg) of the same compound?
The Cmax was 40.4 ± 3 µM.

And the Vd ([2]; iv, 3 mg/kg)?
The Vd was 0.26 ± 0.05 L/kg.

And the clearance ([2]; iv, 3 mg/kg)?
The clearance was 3.24 ± 0.81 mL/min/kg.

What about the half-life ([2]; iv, 3 mg/kg) of the same compound?
Its half-life is 1.18 ± 0.18 h.

And the AUC(0-inf) ([2]; po, 15 mg/kg)?
Its AUC(0-inf) is 77.7 ± 39.6 µM·h.

What about the AUC(0-t) ([2]; po, 15 mg/kg) of the same compound?
The AUC(0-t) was 74.6 ± 36.3 µM·h.

And the Cmax ([2]; po, 15 mg/kg)?
The Cmax was 26 ± 13.3 µM.

And the Tmax ([2]; po, 15 mg/kg)?
The Tmax was 0.58 ± 0.2 h.

And the bioavailability ([2]; po, 15 mg/kg)?
Its bioavailability is 42%.

What about the half-life ([2]; po, 15 mg/kg) of the same compound?
Its half-life is 2.21 ± 0.39 h.

And the AUC(0-inf) ([2]; po, 50 mg/kg)?
Its AUC(0-inf) is 110 ± 84.9 µM·h.

And the AUC(0-t) ([2]; po, 50 mg/kg)?
The AUC(0-t) was 110 ± 84.9 µM·h.

What about the Cmax ([2]; po, 50 mg/kg) of the same compound?
The Cmax was 32.3 ± 11.3 µM.

What about the Tmax ([2]; po, 50 mg/kg) of the same compound?
The Tmax was 0.54 ± 0.25 h.

And the bioavailability ([2]; po, 50 mg/kg)?
The bioavailability was 18.7%.

And the half-life ([2]; po, 50 mg/kg)?
The half-life was 2 ± 0.55 h.

And the AUC(0-inf) ([2]; po, 50 mg/kg/day)?
Its AUC(0-inf) is 151 ± 63.5 µM·h.

What about the AUC(0-t) ([2]; po, 50 mg/kg/day) of the same compound?
The AUC(0-t) was 160 ± 60.3 µM·h.

What about the Cmax at 7 days ([2]; po, 50 mg/kg/day) of the same compound?
Its Cmax at 7 days is 46.5 ± 13.9 µM.

And the Tmax at 7 days ([2]; po, 50 mg/kg/day)?
The Tmax at 7 days was 1.42 ± 0.67 h.

And the half-life at 7 days ([2]; po, 50 mg/kg/day)?
Its half-life at 7 days is 2.17 ± 0.55 h.

What about the AUC(0-inf) ([2]; po, 150 mg/kg) of the same compound?
Its AUC(0-inf) is 233 ± 158 µM·h.

And the AUC(0-t) ([2]; po, 150 mg/kg)?
Its AUC(0-t) is 232 ± 158 µM·h.

What about the Cmax ([2]; po, 150 mg/kg) of the same compound?
Its Cmax is 48.7 ± 9.5 µM.

And the Tmax ([2]; po, 150 mg/kg)?
The Tmax was 1.58 ± 2.26 h.

What about the bioavailability ([2]; po, 150 mg/kg) of the same compound?
Its bioavailability is 13%.

What about the half-life ([2]; po, 150 mg/kg) of the same compound?
The half-life was 2.54 ± 0.8 h.

And the IC50 [3]?
The IC50 was over 10000 nM.

What about the IC50 [4] of the same compound?
The IC50 was over 10000 nM.

And the IC50 [5]?
The IC50 was 79 nM.

And the IC50 [6]?
Its IC50 is 15.5 nM.

And the “phosphorylation of FGFR1‒4 and ERK” value [7]?
The value was “significantly inhibited”.
